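Tested at 5 concentrations; 48 h exposure; 96-well plates; endpoints linearly interpolated, else capped at highest concentration. TGI: total growth inhibition.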
Assays:
Test in all cases: NCI tumour cell line growth inhibition, 48 h
[1] = system: 786-0 renal
[2] = system: A498 renal
[3] = system: A549 NSCLC
[4] = system: ACHN renal
[5] = system: BT-549 breast
[6] = system: CAKI-1 renal
[7] = system: CCRF-CEM leukemia
[8] = system: COLO 205 colon
[9] = system: DU-145 prostate
[10] = system: EKVX NSCLC
[11] = system: HCC-2998 colon
[12] = system: HCT-116 colon
[13] = system: HCT-15 colon
[14] = system: HL-60(TB) leukemia
[15] = system: HOP-92 NSCLC
[16] = system: HS 578T breast
[17] = system: HT29 colon
[18] = system: IGROV1 ovarian
[19] = system: K-562 leukemia
[20] = system: KM12 colon
[21] = system: LOX IMVI melanoma
[22] = system: M14 melanoma
[23] = system: MALME-3M melanoma
[24] = system: MCF7 breast
[25] = system: MDA-MB-231 breast
[26] = system: MDA-MB-435
[27] = system: MDA-N
[28] = system: MOLT-4 leukemia
[29] = system: NCI-H226 lung
[30] = system: NCI-H23 lung
[31] = system: NCI-H460 lung
[32] = system: NCI-H522 lung
[33] = system: NCI/ADR-RES ovarian
[34] = system: OVCAR-4 ovarian
[35] = system: OVCAR-5 ovarian
[36] = system: OVCAR-8 ovarian
[37] = system: PC-3 prostate
[38] = system: RPMI-8226 leukemia
[39] = system: RXF 393 renal
[40] = system: SF-268 CNS
[41] = system: SF-539 CNS
[42] = system: SK-MEL-2 melanoma
[43] = system: SK-MEL-28 melanoma
[44] = system: SK-MEL-5 melanoma
[45] = system: SN12C renal
[46] = system: SNB-19 CNS
[47] = system: SNB-75 CNS
[48] = system: SR leukemia
[49] = system: SW-620 colon
[50] = system: T-47D breast
[51] = system: TK-10 renal
[52] = system: U251 CNS
[53] = system: UACC-257 melanoma
[54] = system: UACC-62 melanoma
[55] = system: UO-31 renal
[56] = system: HOP-62 NSCLC
[57] = system: OVCAR-3 ovarian
[58] = system: SF-295 CNS
[59] = system: SK-OV-3 ovarian

## O=C1C(Cl)C2(CC(/C=C/c3cccs3)=NN2c2cccc(S(=O)(=O)O)c2)N1c1nc2ccccc2s1 (centres undefined)
[1]
  TGI: > 100 µM
[2]
  TGI: > 100 µM
[3]
  TGI: > 100 µM
[4]
  TGI: > 100 µM
[5]
  TGI: > 100 µM
[6]
  TGI: > 100 µM
[7]
  TGI: 78.2 µM
[8]
  TGI: > 100 µM
[9]
  TGI: > 100 µM
[10]
  TGI: > 100 µM
[11]
  TGI: > 100 µM
[12]
  TGI: > 100 µM
[13]
  TGI: > 100 µM
[14]
  TGI: > 100 µM
[15]
  TGI: > 100 µM
[16]
  TGI: > 100 µM
[17]
  TGI: > 100 µM
[18]
  TGI: > 100 µM
[19]
  TGI: > 100 µM
[20]
  TGI: > 100 µM
[21]
  TGI: > 100 µM
[22]
  TGI: > 100 µM
[23]
  TGI: > 100 µM
[24]
  TGI: > 100 µM
[25]
  TGI: > 100 µM
[26]
  TGI: > 100 µM
[27]
  TGI: > 100 µM
[28]
  TGI: > 100 µM
[29]
  TGI: > 100 µM
[30]
  TGI: > 100 µM
[31]
  TGI: > 100 µM
[32]
  TGI: 38.5 µM
[33]
  TGI: > 100 µM
[34]
  TGI: > 100 µM
[35]
  TGI: > 100 µM
[36]
  TGI: > 100 µM
[37]
  TGI: > 100 µM
[38]
  TGI: > 100 µM
[39]
  TGI: > 100 µM
[40]
  TGI: > 100 µM
[41]
  TGI: > 100 µM
[42]
  TGI: > 100 µM
[43]
  TGI: > 100 µM
[44]
  TGI: > 100 µM
[45]
  TGI: > 100 µM
[46]
  TGI: > 100 µM
[47]
  TGI: > 100 µM
[48]
  TGI: > 100 µM
[49]
  TGI: > 100 µM
[50]
  TGI: > 100 µM
[51]
  TGI: > 100 µM
[52]
  TGI: > 100 µM
[53]
  TGI: > 100 µM
[54]
  TGI: > 100 µM
[55]
  TGI: 23.8 µM

## O=c1oc2ccc(Cl)cc2c2ccccc12
[1]
  TGI: > 100 µM
[2]
  TGI: > 100 µM
[3]
  TGI: > 100 µM
[4]
  TGI: > 100 µM
[5]
  TGI: 37 µM
[6]
  TGI: > 100 µM
[7]
  TGI: > 100 µM
[8]
  TGI: > 100 µM
[9]
  TGI: > 100 µM
[10]
  TGI: > 100 µM
[11]
  TGI: > 100 µM
[12]
  TGI: > 100 µM
[13]
  TGI: > 100 µM
[14]
  TGI: > 100 µM
[56]
  TGI: 45.1 µM
[15]
  TGI: 93.5 µM
[16]
  TGI: 77.2 µM
[17]
  TGI: > 100 µM
[18]
  TGI: > 100 µM
[19]
  TGI: > 100 µM
[21]
  TGI: > 100 µM
[22]
  TGI: > 100 µM
[23]
  TGI: > 100 µM
[24]
  TGI: > 100 µM
[25]
  TGI: 41.2 µM
[26]
  TGI: > 100 µM
[27]
  TGI: > 100 µM
[28]
  TGI: > 100 µM
[29]
  TGI: > 100 µM
[30]
  TGI: 58.2 µM
[31]
  TGI: > 100 µM
[32]
  TGI: > 100 µM
[33]
  TGI: > 100 µM
[57]
  TGI: > 100 µM
[34]
  TGI: > 100 µM
[35]
  TGI: > 100 µM
[36]
  TGI: > 100 µM
[37]
  TGI: > 100 µM
[38]
  TGI: > 100 µM
[39]
  TGI: 58.9 µM
[40]
  TGI: 50.5 µM
[58]
  TGI: > 100 µM
[41]
  TGI: > 100 µM
[42]
  TGI: 50.9 µM
[43]
  TGI: > 100 µM
[44]
  TGI: > 100 µM
[45]
  TGI: > 100 µM
[46]
  TGI: 45.1 µM
[47]
  TGI: 97.4 µM
[48]
  TGI: > 100 µM
[49]
  TGI: > 100 µM
[50]
  TGI: > 100 µM
[51]
  TGI: > 100 µM
[52]
  TGI: 33.7 µM
[53]
  TGI: > 100 µM
[54]
  TGI: > 100 µM

## Clc1ccccc1/C=C/c1ccnc2ccccc12
[1]
  TGI: 29.2 µM
[2]
  TGI: 33.1 µM
[3]
  TGI: 29.9 µM
[4]
  TGI: 30.1 µM
[5]
  TGI: 29 µM
[6]
  TGI: 30.5 µM
[7]
  TGI: 50.3 µM
[8]
  TGI: 26.7 µM
[9]
  TGI: 29 µM
[10]
  TGI: 17.9 µM
[11]
  TGI: 32.2 µM
[12]
  TGI: 29.1 µM
[13]
  TGI: 28.1 µM
[14]
  TGI: 45 µM
[56]
  TGI: 31.9 µM
[15]
  TGI: 24.2 µM
[16]
  TGI: 53 µM
[17]
  TGI: 29.8 µM
[18]
  TGI: 32.7 µM
[19]
  TGI: 38.6 µM
[20]
  TGI: 31.6 µM
[21]
  TGI: 35.2 µM
[22]
  TGI: 32.1 µM
[23]
  TGI: 35.4 µM
[24]
  TGI: 26.7 µM
[25]
  TGI: 41.9 µM
[26]
  TGI: 29.2 µM
[27]
  TGI: 27.7 µM
[29]
  TGI: 33.3 µM
[30]
  TGI: 27.5 µM
[31]
  TGI: 31.7 µM
[32]
  TGI: 31.7 µM
[33]
  TGI: 32.9 µM
[57]
  TGI: 28 µM
[34]
  TGI: 31.3 µM
[35]
  TGI: 34.5 µM
[36]
  TGI: 36.3 µM
[37]
  TGI: 30.6 µM
[38]
  TGI: 36.3 µM
[39]
  TGI: 31 µM
[40]
  TGI: 40.2 µM
[58]
  TGI: 29.2 µM
[41]
  TGI: 34.9 µM
[42]
  TGI: 34.2 µM
[43]
  TGI: 34.9 µM
[44]
  TGI: 28.4 µM
[59]
  TGI: 32.8 µM
[45]
  TGI: 30.1 µM
[46]
  TGI: 31.3 µM
[47]
  TGI: 29 µM
[48]
  TGI: 46.8 µM
[49]
  TGI: 35.6 µM
[50]
  TGI: 30.2 µM
[51]
  TGI: 32.1 µM
[52]
  TGI: 31.4 µM
[53]
  TGI: 28.5 µM
[54]
  TGI: 29 µM
[55]
  TGI: 31 µM

Reference: PubChem BioAssay (NCI)
